Results taken from patent US5846942A, “Cholecystokinin antagonists, their preparation and therapeutic use” (Warner-Lambert Company, priority 1996, dated 1998).

target: T1, Central CCK Receptors (Mus musculus, UniProt P56481); assay: Binding to central CCK receptors, displacement of tritiated pentagastrin from cerebral cortical membranes of male CFLP mice; design: species or system mouse (male CFLP); details: cerebral cortexes taken from male CFLP mice; 2 nM tritiated-pentagastrin
T1 construct: from tissue; host or cells: cerebral cortex membranes of male CFLP mice (30-40 g)
T1 sequence (P56481 1-453): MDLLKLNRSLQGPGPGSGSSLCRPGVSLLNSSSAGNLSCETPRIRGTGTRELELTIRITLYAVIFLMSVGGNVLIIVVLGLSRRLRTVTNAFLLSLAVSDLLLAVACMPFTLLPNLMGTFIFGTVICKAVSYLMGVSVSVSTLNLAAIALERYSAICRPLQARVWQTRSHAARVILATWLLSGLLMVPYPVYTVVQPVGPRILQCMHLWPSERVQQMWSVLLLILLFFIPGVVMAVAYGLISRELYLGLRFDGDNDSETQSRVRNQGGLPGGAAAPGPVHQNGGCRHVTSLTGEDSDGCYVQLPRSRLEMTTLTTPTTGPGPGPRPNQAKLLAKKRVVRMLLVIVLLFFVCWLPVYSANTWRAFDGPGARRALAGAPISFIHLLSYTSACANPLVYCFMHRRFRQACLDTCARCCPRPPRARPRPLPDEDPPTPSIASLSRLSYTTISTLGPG
Description: The biological activity of compounds of the present invention was evaluated employing an initial screening test which rapidly and accurately measured the binding of the tested compound to known CCK receptor sites. […] (See Hays et al, Neuropeptides 1:53-62, 1980; and Satuer et al, Science 208:1155-1156, 1980).
In this screening test, the cerebral cortices taken from male CFLP mice weighing between 30-40 g were dissected on ice, weighed, and homogenized in 10 volumes of 50 mM Tris-HCl buffer (pH 7.4 at 0°-4° C.). The resulting suspension was centrifuged, the supernate was discarded, and the pellet was washed by resuspension in Tris-HCl buffer followed by recentrifugation. The final pellet was resuspended in 20 volumes of […] Hepes buffer (pH 7.2 at 23° C.) containing 130 mM NaCl, […] KCl, […] MgCl2, […] EDTA, 5 mg/mL bovine albumin, and bacitracin (0.25 mg/mL).
In saturation studies, cerebral cortical membranes were incubated at 23° C. for 120 minutes in a final volume of 500 μL of Hepes incubation buffer (pH 7.2) together with […] tritiated-pentagastrin (Amersham International, England).
In the displacement experiments, membranes were incubated with a single concentration (2 nM) of ligand, together with increasing concentrations (10^-11 to […]) of competitive test compound. In each case, the nonspecific binding was defined as that persisting in the presence of the unlabeled octapeptide CCK26-33 (10^-6 M)
Following incubation, radioactivity bound to membranes was separated from that free in solution by rapid filtration through Whatman GF/B filters and washed three times with 4 mL of ice cold Tris-HCl buffer. Filters from samples incubated with tritiated-pentagastrin were placed in polyethylene vials with 4 mL of scintillation cocktail, and the radioactivity was estimated by liquid scintillation spectrometry (efficiency 47-52%).
Saturation curves for specific tritiated- pentagastrin binding to mouse cortical membranes were analyzed by the methods of Scatchard (Ann. New York Acad. Sci. 51:660-672, 1949, and Hill (J. Physiol. 40:IV-VIII, 1910), to provide estimates for the maximum number of binding sites (Bmax) and the equilibrium dissociation constant (Ka).
In displacement experiments, inhibition curves were analyzed by either logit-log plots or the iterative curve fitting computer program ALLFIT (DeLean, Munson and Redbard, 1978) to provide estimates of the IC50 and nH (apparent Hill coefficient) values).
The inhibition constant (Ki) of the test compound was then calculated according to the Cheng-Prusoff equation: [formula] where [L] is the concentration of radiolabel and Ka is the equilibrium dissociation constant.

Row | Structure (SMILES) | Ki [nM]
1 | C[C@@](Cc1c[nH]c2ccccc12)(NC(=O)OC1C2CC3CC(C2)CC1C3)C(=O)NCCC(=O)N[C@H](Cc1ccccc1)C(=O)O (stereo partly drawn) [Example 35, Benzenepropanoic acid, α-[[3-[[3-[(1H-indol-3-yl)-2-methyl-1-oxo-2-[[(tricyclo[3.3.1.1^3,7]dec-2-yloxy)-carbonyl]amino]propyl]amino]-1-oxopropyllamino-, [S-(R*,S*)]-] | 540
2 | C[C@](Cc1c[nH]c2ccccc12)(NC(=O)OC1C2CC3CC(C2)CC1C3)C(=O)NCC(=O)OCc1ccccc1 (stereo partly drawn) [Example 36] | 50
3 | CC(CNC(=O)O[C@@H]1C[C@@H]2CC[C@@]1(C)C2(C)C)(Cc1c[nH]c2ccccc12)C(=O)N[C@H](COC(=O)CCC(=O)O)Cc1ccccc1 (stereo partly drawn) [Example 56, Butanedioic acid, mono 2-[[2-(1H-indol-3-ylmethyl)-2-methyl-1-oxo-3-[[(1,7,7-trimethylbicyclo[2.2.1]hept-2-yloxy)carbonyl]-amino]propyl]amino]-3-phenylpropyl ester (Bicyclo system is 1S-endo, phenvlmethyl center is S. other center is RS)] | 23
4 | CC(CNC(=O)OC1C2CC3CC(C2)CC1C3)(Cc1c[nH]c2ccccc12)C(=O)N[C@H](COC(=O)CCC(=O)O)Cc1ccccc1 (stereo partly drawn) [Example 57] | 93
5 | N#CC(=Cc1c[nH]c2ccccc12)C(=O)NCCc1ccccc1 [Example 58] | 110
6 | C[C@](CC(=O)N[C@H](C(=O)O)c1ccccc1)(Cc1c[nH]c2ccccc12)NC(=O)OC1C2CC3CC(C2)CC1C3 (stereo partly drawn) [Example 90, N-[D-3-(1H-indol-3-ylmethyl)-3-methyl-N-[(tricyclo [3.3.1.1^3,7]dec-2-yloxy)carbonyl]-β-alanyl]-L-2-phenylglycine] | 942
7 | C[C@](Cc1c[nH]c2ccccc12)(NC(=O)OC1C2CC3CC(C2)CC1C3)C(=O)N[C@H](C(=O)O)c1ccccc1 (stereo partly drawn) [Example 91, [R-(R*,S)]-α-[[3-(1H-indol-3-yl)-2-methyl-1-oxo-2-[[(tricyclo[3.3.1.1^3,7]dec-2-yloxy)carbonyl]amino]proipyl]amino]benzeneacetic acid, [R-(R*,S*)]-] | 110
8 | COC[C@@H]1CCCN1NC(=O)[C@@](C)(Cc1c[nH]c2ccccc12)NC(=O)OC1C2CC3CC(C2)CC1C3 (stereo partly drawn) [Example 112, Tricyclo[3.3.1.1^3.7]dec-2-yl ester [2S-(R*,S*)1 N-[1-(1H-indol-3-ylmethyl)-2-[[2-(methoxymethyl)-1-pyrrolidinyl]amino]-1-methyl-2-oxoethyl]carbamate] | 73
9 | COC[C@H]1CCCN1NC(=O)[C@@](C)(Cc1c[nH]c2ccccc12)NC(=O)OC1C2CC3CC(C2)CC1C3 (stereo partly drawn) [Example 113, Tricyclo [3.3.1.1^3,7]dec-2-yl [R-(R*,R*)]-[-(1H-indol-3-ylmethyl)-2-[[2-(methoxymethyl)-1-pyrrolidinyl]amino]-1-methyl-2-oxoethyl]carbamate] | 2.5
10 | C[C@](Cc1c[nH]c2ccccc12)(NC(=O)OC1C2CC3CC(C2)CC1C3)C(=O)NC1CCCCC1C(=O)O (stereo partly drawn) [Example 115, [1S-[α(S*),2B]] and [1R-[α(R*),28β]]^sP 2-[[3-(1H-indol-3-yl)-2-methyl-1-oxo-2-[(tricyclo[3.3.1.1^3,7]dec-2-yloxy)carbonyl]amino]propyl]amino]cyclhexanecarboxylic acid] | 1
11 | C[C@](Cc1c[nH]c2ccccc12)(NC(=O)OC1C2CC3CC(C2)CC1C3)C(=O)NC1CCCCC1C#N (stereo partly drawn) [Example 116, Carbamic acid [2-[(2-cyanocyclohexyl)amino]-1-(1H-indol-3-ylmethyl)-1-methyl-2-oxoethyl]-1H-tricyclo-[3.3.1.1^3,7]dec-2-yl ester] | 3.5
12 | CC1CCCCC1NC(=O)C(C)(Cc1c[nH]c2ccccc12)NC(=O)OC1C2CC3CC(C2)CC1C3 (stereo not drawn) [Example 117, Tricyclo[3.3.1.1^3,7]dec-2-yl ester[1-(1H-indol-3-ylmethyl)-1-methyl-2[(2-methylcyclohexyl)amino]-2-oxoethyl]carbamate] | 39
13 | C[C@](Cc1c[nH]c2ccccc12)(NC(=O)OC1C2CC3CC(C2)CC1C3)C(=O)NC1CC2CCC1C2 (stereo partly drawn) [Example 118, Tricyclo[3.3.1.1^3,7]dec-2yl ester [2-(bicyclo[2.2.1]hept-2-ylamino)-1-(1H-indol-3-ylmethyl)-1-methyl-2-oxoethyl]carbamate] | 53
14 | C[C@](Cc1c[nH]c2ccccc12)(NC(=O)OC1C2CC3CC(C2)CC1C3)C(=O)NC1(CO)CCCC1 (stereo partly drawn) [Example 119, Tricyclo[3.3.1.1^3,7]dec-2-yl ester (R) [2-[[1-(hydroxymethyl)cyclopentyl]amino]-1-(1H-indol-3-ylmethyl)-1-methyl-2-oxoethyl]carbamate] | 180
15 | C[C@](Cc1c[nH]c2ccccc12)(NC(=O)OC1C2CC3CC(C2)CC1C3)C(=O)NC1(C(=O)O)CCCCC1 (stereo partly drawn) [Example 120, (R)-1-[[2-(1H-indol-3-ylmethyl)-2-methyl-1-oxo-2-[[(tricyclo[3.3.1.1^3,7]dec-2-yloxy)carbonyl]amino]ethyl]amino]cyclohexanoic acid] | 40
16 | CC(Cc1c[nH]c2ccccc12)(NC(=O)OC1C2CC3CC(C2)CC1C3)C(=O)NC1CCCCC1C(=O)O (stereo not drawn) [Example 121, 2-[[3-(1H-indol-3-yl)-2-methyl-1-oxo-2-[[(tricyclo-[3.3.1.1^3,7]dec-2-yloxy)carbonyl]amino]propyl]amino]cyclohexanecarboxylic acid] | 2
17 | C[C@](Cc1c[nH]c2ccccc12)(NC(=O)OC1C2CC3CC(C2)CC1C3)C(=O)NC1(CO)CCCCC1 (stereo partly drawn) [Example 122] | 59
18 | CNC(=O)C1CCCCC1NC(=O)[C@@](C)(Cc1c[nH]c2ccccc12)NC(=O)OC1C2CC3CC(C2)CC1C3 (stereo partly drawn) [Example 123] | 17
